Assay results published in PubChem BioAssay AID1645868 (Buhrlage Lab, Dana-Farber Cancer Institute and Novartis …, 2021).
Active and inactive are the calls of the source.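 How the source made its calls: active means maximal percent inhibition of the deubiquitinase OTUD3 of at least 30% across the tested doses; inactive means the rest.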

Each compound was assayed against OTU domain-containing protein 3 (Homo sapiens) (UniProt Q5T2D3) (assay: Validation of screening hits, potency titration, in vitro enzymatic, OTU domain-containing protein 3 DUB inhibitors (AID 1645868)). Details: purified OTUD3, ubiquitin-rhodamine cleavage fluorescence, 2 h.
Chain of OTU domain-containing protein 3 (Homo sapiens) (Q5T2D3 whole entry, looked up, the tested form may be a part): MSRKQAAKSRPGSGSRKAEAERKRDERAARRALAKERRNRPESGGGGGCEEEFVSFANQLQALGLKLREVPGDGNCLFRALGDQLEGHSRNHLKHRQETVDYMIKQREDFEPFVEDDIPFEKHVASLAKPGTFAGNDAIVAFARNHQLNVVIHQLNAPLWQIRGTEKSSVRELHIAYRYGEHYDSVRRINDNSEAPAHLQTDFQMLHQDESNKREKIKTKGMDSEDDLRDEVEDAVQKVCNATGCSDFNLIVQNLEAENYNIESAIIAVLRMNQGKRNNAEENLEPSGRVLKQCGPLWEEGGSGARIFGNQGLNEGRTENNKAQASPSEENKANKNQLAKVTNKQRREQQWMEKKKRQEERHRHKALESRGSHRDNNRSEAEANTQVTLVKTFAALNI

SMILES | IC50
COc1ccc(-c2cc(C(C)=O)c(C)n2CCC(=O)Nc2ccc(OC)cc2OC)cc1 | > 50 µM (inactive)
COc1cccc(NC(=O)C2Cn3ccnc3C3(CCN(C(C)=O)CC3)O2)c1 (stereo not drawn) | > 50 µM (inactive)
O=C(Nc1ccc2c(c1)OCCO2)c1cc(CN2CCOCC2)on1 | > 50 µM (inactive)
COc1ncccc1CN1CCn2c(Cn3cccn3)cnc2C1C (stereo not drawn) | > 50 µM (inactive)
CC(C)(C)C(=O)NC(c1ccccc1)c1nnc(N2CCOCC2)o1 (stereo not drawn) | > 50 µM (inactive)
CCOc1cc(C2C3=C(CC(C)(C)CC3=O)Nc3onc(C)c32)ccc1O (stereo not drawn) | > 50 µM (inactive)
COc1ccccc1CC(=O)N(C)C(c1ccccc1)c1ccccc1 | > 50 µM (inactive)
COc1ccc(S(=O)(=O)N(C)Cc2cccs2)cc1OC | > 50 µM (inactive)
CC(C)Cn1cc(OC(=O)c2ccc(F)cc2)c2c1nc(-c1ccc(F)cc1)n1c3ccccc3nc21 | > 50 µM (inactive)
Cc1cccc(N2C(=O)/C(=C\c3ccc4c(c3)OCCO4)c3ccccc3C2=O)c1 | > 50 µM (inactive)
O=C(Nc1ccc2c(c1)N(C(=O)C1CCCC1)CC2)c1c(F)cccc1F | > 50 µM (inactive)
CCOC(=O)c1ccc(S(=O)(=O)N2CCC(C(=O)OC(C)C(=O)Nc3cccc([N+](=O)[O-])c3)CC2)cc1 (stereo not drawn) | 17.3 µM
COc1ccc(-c2nc(-c3nnn(Cc4ccc(F)cc4)c3C)no2)c(OC)c1 | 20.4 µM
Cc1nc(SCC#N)c2oc3ccccc3c2n1 | > 50 µM (inactive)
CC(C)NC(=O)[C@H](Cc1ccccc1)NC(=O)N1CCn2c1nc1ccccc12 | > 50 µM (inactive)
O=C(NCc1ccc2c(c1)OCO2)c1nn(C23CC4CC(CC(C4)C2)C3)cc1[N+](=O)[O-] | > 50 µM (inactive)
CCNc1nc(SCC(C)=O)nc2sc3c(c12)CCC(C)C3 (stereo not drawn) | > 50 µM (inactive)
COc1ccc(CCNC(=O)COc2ncnc3oc(C)c(C)c23)cc1OC | > 50 µM (inactive)
Cc1c(C)n(-c2ccc(Br)cn2)c2ncnc(NCCCO)c12 | > 50 µM (inactive)
C=C(NC(=O)C(=C)NC(=O)c1csc(C2=N[C@@H]3c4csc(n4)[C@H]4NC(=O)c5csc(n5)[C@H]([C@](C)(O)[C@@H](C)O)NC(=O)C5CSC(=N5)/C(=C/C)NC(=O)C([C@@H](C)O)NC(=O)c5csc(n5)[C@]3(CC2)NC(=O)[C@H](C)NC(=O)C(=C)NC(=O)[C@H](C)NC(=O)C([C@@H](C)CC)NC2C=Cc3c(C(C)O)cc(nc3[C@H]2O)C(=O)OC4C)n1)C(N)=O (stereo partly drawn) | > 50 µM (inactive)

SMILES | IC50
COc1cccc(CNC(=O)c2ccc3c(c2)NC(=O)C2CCCN32)c1OC (stereo not drawn) | > 50 µM (inactive)
O=c1[nH]cccc1NS(=O)(=O)c1ccc(F)cc1 | > 50 µM (inactive)
CCOC(=O)c1cc2c(ccn2C)n1CC(=O)N1CCc2ccccc2C1 | > 50 µM (inactive)
COc1ccc(-c2ccnc(-c3ccc(OCc4cccc(F)c4)cc3)n2)cc1 | 45.8 µM
COC(=O)C1C(c2ccc(OC)cc2)C2(C(=O)c3ccccc3C2=O)C2C=Cc3ccccc3N12 (stereo not drawn) | > 50 µM (inactive)
Cc1nc(-c2ccc3c(c2)nnn3CCN2CCOCC2)no1 | > 50 µM (inactive)
CC1CCc2c(sc3ncnc(NC4CCN(CC(N)=O)CC4)c23)C1 (stereo not drawn) | > 50 µM (inactive)
CC(C)Cc1nc2sc3c(NCCN4CCOCC4)ncnc3c2c2c1CCC2 | > 50 µM (inactive)
Nc1ncnc2c1ncn2[C@@H]1O[C@H](CO)C[C@@H]1O | 33.4 µM
O=c1ccc(-c2noc(-c3ccc4cc[nH]c4c3)n2)c[nH]1 | > 50 µM (inactive)
CCOc1ccc(NC(=O)Cn2c(=O)n(CCC(=O)NCc3ccccc3OC)c(=O)c3ccccc32)cc1 | 15.4 µM
CC(=O)c1ccc(N2C(=O)N(Cc3cccc([N+](=O)[O-])c3)c3ccccc3S2(=O)=O)cc1 | > 50 µM (inactive)
O=C1C=CC(O)C2C1CC13SSC4(CC5C(=O)C=CC(O)C5N4C1=O)C(=O)N23 (stereo not drawn) | > 50 µM (inactive)
CCCN1CCN(C(=O)c2cc(NC(=O)C3CCC3)cc3nc(C)ccc23)CC1 | > 50 µM (inactive)
CCc1ccc2[nH]c(=O)c(CN(CCc3ccc(OC)c(OC)c3)C(=O)Nc3ccccc3)cc2c1 | > 50 µM (inactive)
CCOC(=O)C1CCN(C(=O)c2ccc3c(c2)NC(=O)C2CCCN32)CC1 (stereo not drawn) | > 50 µM (inactive)
O=C(CSc1nc2cc(S(=O)(=O)Nc3ccccc3Cl)ccc2o1)Nc1ccc(N2CCOCC2)cc1 | > 50 µM (inactive)
CC(C)NC(=O)CN1C(=O)CC(C)Sc2ccc(S(=O)(=O)N3CCCCC3)cc21 (stereo not drawn) | 31.7 µM
Cc1cc(C(=O)N2CCOC3(CC=CCN(CCc4ccccc4)C3=O)C2)n2nccc2n1 (stereo not drawn) | > 50 µM (inactive)

Other lines, results leading:

IC50 | SMILES
> 50 µM (inactive) | COc1ccccc1-c1nc2c3c(C)c(C)n(-c4ccc(Br)cn4)c3ncn2n1
> 50 µM (inactive) | Cc1cccc(C(=O)N2CCN3Cc4ccccc4N(C)CC3C2)c1 (stereo not drawn)
35.6 µM | CCCC(=O)Nc1nc2ccc(CCC(=O)NCc3ccc(F)cc3)cc2s1
29.6 µM | O=C(CSc1nnc(CNC(=O)c2ccccc2F)o1)Nc1ccc(OC(F)(F)F)cc1
> 50 µM (inactive) | COc1ccc(C(=O)Nc2ccccc2C(=O)NCc2ccccc2)cc1
> 50 µM (inactive) | O=C(/C=C/c1ccc(F)cc1)Nc1ccc2c(c1)OCCO2
45 µM | Oc1cc(OCc2cccc(C(F)(F)F)c2)ccc1-c1ccn[nH]1
> 50 µM (inactive) | FC(F)(F)c1ccccc1CCN1CCc2nc3ncc(Cl)cc3cc2C1
> 50 µM (inactive) | Cc1ccc(S(=O)(=O)c2cnc(SCC(=O)Nc3ccc(Cl)cc3)nc2N)cc1C
> 50 µM (inactive) | NC(=O)c1ccc(NC(=O)Cc2cc(-c3ccc(Cl)cc3)on2)cc1
3.48 µM | Cc1cc(NC(=O)Cn2c(=O)n(CCCCC(=O)NCc3ccco3)c(=O)c3ccccc32)ccc1Br
31.9 µM | COc1ccc2nc(SCC(=O)Nc3ccc(NC(C)=O)cc3)c(C)cc2c1
> 50 µM (inactive) | COc1ccc(NC(=O)COc2cc(CSc3ccccc3)ncc2OC)cc1
22 µM | O=C(CSc1nc2cc(C(F)(F)F)ccc2s1)NCC(=O)c1ccccc1
> 50 µM (inactive) | O=C(OCc1cccc(Cl)c1)c1ccc2ccccc2n1
30.5 µM | Cc1ccc(NC(=O)/C=C/c2cccc(C(F)(F)F)c2)c(O)c1
21.2 µM | COC(=O)c1sc2ccccc2c1NC(=O)c1ccc(Br)s1
> 50 µM (inactive) | CCOC(=O)c1ccc(NC(=O)C[n+]2cc(-c3ccc(Cl)cc3)n3c2CCC3)cc1
> 50 µM (inactive) | O=c1cc(CNc2ccc(Br)cc2)nc2nc(-c3ccccc3)[nH]n12
29.7 µM | Oc1ccc(-c2nc3ccc(Cl)cn3c2NC2CCCCC2)cc1
> 50 µM (inactive) | CC(C)CC(NC(=O)c1ccc(Cl)cc1Cl)c1nc2ccccc2[nH]1 (stereo not drawn)
20.2 µM | O=C(CSc1nnc(Cn2cnc3ccccc32)o1)Nc1ccc([N+](=O)[O-])cc1
39.3 µM | COc1ccc(NC(=O)Nc2cccc(-c3nnc(-c4ccccc4)o3)c2)cc1OC
> 50 µM (inactive) | CCOc1ccccc1NC(=O)Cn1c(-c2ccc3c(c2)OCO3)cn(-c2ccc(OC)cc2)c1=O
> 50 µM (inactive) | COc1ccc(-c2cc(C(F)F)n3ncc(C(=O)Nc4ccc5c(c4)OCCO5)c3n2)cc1
> 50 µM (inactive) | Cc1ccc(NC(=O)c2ccc3nn(CC(=O)Nc4ccc(F)cc4F)c(=O)n3c2)cc1
> 50 µM (inactive) | CCOc1ccc(NC(=O)CSc2nc3n[nH]c(C)c3c(=N)n2-c2ccc(OC)cc2)cc1

IC50 | SMILES
> 50 µM (inactive) | CCN(CC)c1cc(C)c2cc(NC(=O)c3ccncc3)ccc2n1
21.7 µM | O=C(NCc1ccc2c(c1)OCO2)c1cc2c(s1)-c1ccccc1OC2
29.4 µM | O=C1Nc2c(Cl)cc(Cl)cc2C1(O)c1sc(NC2CCCCC2)nc1-c1ccccc1 (stereo not drawn)
21 µM | Cc1ccccc1NC(=O)CNc1nc(Nc2ccccc2)nc(Nc2ccccc2)n1
24.1 µM | Cc1cccc(C(=O)Nc2cccc(SC(C(=O)Nc3ccc(O)c(C(=O)O)c3)c3ccccc3)c2)c1 (stereo not drawn)
> 50 µM (inactive) | COc1cccc(NC(=O)CCc2c(C)nn(-c3cc(N4CCCCC4)ncn3)c2C)c1
> 50 µM (inactive) | Cc1nc(C(=O)Nc2cccc(Cl)c2Cl)nn1-c1cc(Cl)cc(Cl)c1
> 50 µM (inactive) | O=C(Cc1cccc2ccccc12)Nc1nc2ccc(F)cc2s1
> 50 µM (inactive) | Cc1noc(NS(=O)(=O)c2ccc(NC(=O)CSc3ccc4ccccc4c3)cc2)c1C
> 50 µM (inactive) | Cc1cccc(C(=O)N2CCc3cc(-c4nc(NC(=O)CNc5ccccc5)sc4C)ccc32)c1
> 50 µM (inactive) | Cc1c(-c2nc(-c3ccccc3Cl)no2)nnn1-c1cccc(F)c1
> 50 µM (inactive) | Cc1noc(C)c1COc1cccc(C(=O)Nc2cc(Cl)ccc2-n2cncn2)c1
> 50 µM (inactive) | CN1CC2CN(C(=O)Nc3cccnc3)CCN2Cc2ccccc21 (stereo not drawn)
> 50 µM (inactive) | O=C(CCCc1c[nH]c2ccccc12)Nc1ccc2c(c1)OCCO2
24.5 µM | Cc1ccc(Cl)cc1NC(=O)c1cc(-c2ccccn2)n[nH]1
> 50 µM (inactive) | Cc1csc2ncc(C(=O)N3CCN(c4ccccc4F)CC3)c(=O)n12
> 50 µM (inactive) | Cc1ccc(NC(=O)c2cnc(N3CCOCC3)nc2)cc1F
22.5 µM | Cc1ccc2c(c1)N(C)C(=O)c1cc(NC(=O)c3ccc(F)cc3)ccc1O2
> 50 µM (inactive) | Cc1ccc(Cn2nnc(-c3ccccc3Cl)n2)cc1
> 50 µM (inactive) | Cc1cc(/C=C2/C(=N)N3C(c4ccccc4)=CSC3=NC2=O)c(C)n1-c1ccc2ccccc2c1
> 50 µM (inactive) | Cc1nc2c3ccccc3nc(NCc3ccc4c(c3)OCO4)n2n1
> 50 µM (inactive) | Cc1oc(-c2ccc(C(=O)NCC3COCCO3)cc2)nc1CN1CCc2ccccc21 (stereo not drawn)
24.8 µM | O=C(NCc1ccc2c(c1)OCO2)c1[nH]nc2c1COc1ccccc1-2
> 50 µM (inactive) | Cc1nn(-c2ccc(Cl)cc2)c2[nH]c(=O)c(CNCC3CCCO3)cc12 (stereo not drawn)
> 50 µM (inactive) | CCN(CC(=O)Nc1cc(C)on1)c1cccc2ccccc12
29 µM | Nc1nc(OCc2ccccc2)c2[nH]c(/C=C/c3cccs3)nc2n1
> 50 µM (inactive) | COc1ccc(/C=C/c2ccnc3nc(-n4cccc4)nn23)cc1
